In ChEMBL document CHEMBL4622845, “p62/SQSTM1, a Central but Unexploited Target: Advances in Its Physiological/Pathogenic Functions and Small Molecular Modulators” (J Med Chem, 2020):
Structures can show the parent of a compound that is named as a salt.

Key:
NSCLC = test: Anticancer activity against human NSCLC cells; type: functional, cell-based
[1] = target: Serine/threonine-protein kinase mTOR (Homo sapiens, UniProt P42345); test: Inhibition of mTOR in HEK293 cells; type: cell-based
[2] = target: T1, DNA polymerase alpha catalytic subunit (Homo sapiens, UniProt P09884); test: Inhibition of human DNA polymerase-alpha (unknown origin)
T1 sequence (P09884 whole entry): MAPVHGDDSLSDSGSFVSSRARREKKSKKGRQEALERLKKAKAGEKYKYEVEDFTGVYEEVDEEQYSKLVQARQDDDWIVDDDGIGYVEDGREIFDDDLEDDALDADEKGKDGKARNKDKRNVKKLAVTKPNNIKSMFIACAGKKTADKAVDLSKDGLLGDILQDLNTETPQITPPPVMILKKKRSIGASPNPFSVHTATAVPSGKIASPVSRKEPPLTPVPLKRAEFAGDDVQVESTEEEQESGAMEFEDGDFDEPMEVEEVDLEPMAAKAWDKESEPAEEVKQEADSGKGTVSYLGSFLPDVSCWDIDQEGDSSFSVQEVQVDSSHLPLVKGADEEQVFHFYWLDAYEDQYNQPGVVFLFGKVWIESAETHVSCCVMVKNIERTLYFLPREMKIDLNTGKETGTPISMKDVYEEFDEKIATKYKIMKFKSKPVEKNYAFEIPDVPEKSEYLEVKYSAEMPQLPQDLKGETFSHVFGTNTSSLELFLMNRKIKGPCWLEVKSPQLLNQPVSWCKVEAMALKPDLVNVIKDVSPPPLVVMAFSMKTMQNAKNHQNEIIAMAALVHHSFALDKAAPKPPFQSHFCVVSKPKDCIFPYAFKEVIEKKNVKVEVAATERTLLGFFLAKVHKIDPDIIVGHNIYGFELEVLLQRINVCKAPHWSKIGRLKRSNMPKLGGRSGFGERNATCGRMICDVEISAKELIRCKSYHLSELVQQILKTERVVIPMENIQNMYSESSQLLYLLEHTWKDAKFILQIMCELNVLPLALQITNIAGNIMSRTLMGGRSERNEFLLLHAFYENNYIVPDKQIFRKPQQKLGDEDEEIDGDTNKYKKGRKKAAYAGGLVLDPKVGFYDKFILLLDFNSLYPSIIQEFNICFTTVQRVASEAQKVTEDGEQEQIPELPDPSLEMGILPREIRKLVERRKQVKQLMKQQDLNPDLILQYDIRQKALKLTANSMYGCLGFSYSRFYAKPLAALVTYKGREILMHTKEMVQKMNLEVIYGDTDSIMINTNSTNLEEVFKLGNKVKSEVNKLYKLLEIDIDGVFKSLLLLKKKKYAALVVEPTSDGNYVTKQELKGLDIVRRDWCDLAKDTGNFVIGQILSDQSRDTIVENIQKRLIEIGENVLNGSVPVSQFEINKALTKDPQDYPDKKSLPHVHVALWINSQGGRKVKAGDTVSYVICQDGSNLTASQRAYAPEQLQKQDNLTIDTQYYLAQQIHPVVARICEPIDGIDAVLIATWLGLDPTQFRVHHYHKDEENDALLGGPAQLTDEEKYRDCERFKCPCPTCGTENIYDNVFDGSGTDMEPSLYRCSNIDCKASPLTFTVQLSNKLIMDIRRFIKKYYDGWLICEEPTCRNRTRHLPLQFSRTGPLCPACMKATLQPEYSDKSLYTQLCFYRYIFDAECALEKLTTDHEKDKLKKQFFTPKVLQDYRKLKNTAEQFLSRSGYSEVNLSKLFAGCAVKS

CYP450 = CYP450 (Homo sapiens, UniProt P04798+P05177+P05181+P08684+P10632+P10635+P11509+P11712+P13584+P20813+P20815+P20853+P24462+P24903+P33260+P33261+P51589+P78329+P98187+Q02928+Q08477+Q16678+Q16696+Q5TCH4+Q6VVX0+Q7Z449+Q8TAV3+Q96SQ9+Q9HB55); test: Inhibition of CYP450 (unknown origin); type: ADME, protein assay
[3] = target: T2, Phosphatidylinositol 3-kinase catalytic subunit type 3 (Homo sapiens, UniProt Q8NEB9); test: Inhibition of Vps34 (unknown origin)
[4] = Cytotoxicity against RSL3 resistance human HN3 cells assessed as reduction in cell viability; type: functional, cell-based
[5] = target: T2, Phosphatidylinositol 3-kinase catalytic subunit type 3; test: Inhibition of Vps34 (unknown origin) interaction with PIK3 assessed as reduction in autophagy by increasing LC3 level
[6] = target: T2, Phosphatidylinositol 3-kinase catalytic subunit type 3; test: Inhibition of Vps34 in human MCF7-LC3 cells; type: cell-based
[7] = target: T3, UDP-glucuronosyltransferase 1A1 (Homo sapiens, UniProt P22309); test: Induction of UGT1A1 (unknown origin) assessed as increase in intracellular acidic autophagy vesicles formation; type: ADME, cell-based
T3 sequence (P22309 whole entry): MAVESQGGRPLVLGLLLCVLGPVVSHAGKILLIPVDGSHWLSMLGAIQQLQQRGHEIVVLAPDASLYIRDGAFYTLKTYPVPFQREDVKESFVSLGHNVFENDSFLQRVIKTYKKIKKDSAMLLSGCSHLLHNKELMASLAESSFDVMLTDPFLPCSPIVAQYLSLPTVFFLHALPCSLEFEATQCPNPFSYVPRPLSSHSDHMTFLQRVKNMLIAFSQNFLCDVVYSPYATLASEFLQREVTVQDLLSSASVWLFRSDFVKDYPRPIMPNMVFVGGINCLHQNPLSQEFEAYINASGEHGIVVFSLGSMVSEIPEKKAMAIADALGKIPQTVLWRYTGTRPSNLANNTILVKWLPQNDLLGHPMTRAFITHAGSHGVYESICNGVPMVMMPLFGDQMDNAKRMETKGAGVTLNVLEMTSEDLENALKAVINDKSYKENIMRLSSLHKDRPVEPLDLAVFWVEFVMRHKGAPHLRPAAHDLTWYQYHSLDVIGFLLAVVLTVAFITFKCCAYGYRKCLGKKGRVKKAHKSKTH

[8] = Antitumor activity against human multiple myeloma cells; type: functional

T2 sequence (Q8NEB9 whole entry): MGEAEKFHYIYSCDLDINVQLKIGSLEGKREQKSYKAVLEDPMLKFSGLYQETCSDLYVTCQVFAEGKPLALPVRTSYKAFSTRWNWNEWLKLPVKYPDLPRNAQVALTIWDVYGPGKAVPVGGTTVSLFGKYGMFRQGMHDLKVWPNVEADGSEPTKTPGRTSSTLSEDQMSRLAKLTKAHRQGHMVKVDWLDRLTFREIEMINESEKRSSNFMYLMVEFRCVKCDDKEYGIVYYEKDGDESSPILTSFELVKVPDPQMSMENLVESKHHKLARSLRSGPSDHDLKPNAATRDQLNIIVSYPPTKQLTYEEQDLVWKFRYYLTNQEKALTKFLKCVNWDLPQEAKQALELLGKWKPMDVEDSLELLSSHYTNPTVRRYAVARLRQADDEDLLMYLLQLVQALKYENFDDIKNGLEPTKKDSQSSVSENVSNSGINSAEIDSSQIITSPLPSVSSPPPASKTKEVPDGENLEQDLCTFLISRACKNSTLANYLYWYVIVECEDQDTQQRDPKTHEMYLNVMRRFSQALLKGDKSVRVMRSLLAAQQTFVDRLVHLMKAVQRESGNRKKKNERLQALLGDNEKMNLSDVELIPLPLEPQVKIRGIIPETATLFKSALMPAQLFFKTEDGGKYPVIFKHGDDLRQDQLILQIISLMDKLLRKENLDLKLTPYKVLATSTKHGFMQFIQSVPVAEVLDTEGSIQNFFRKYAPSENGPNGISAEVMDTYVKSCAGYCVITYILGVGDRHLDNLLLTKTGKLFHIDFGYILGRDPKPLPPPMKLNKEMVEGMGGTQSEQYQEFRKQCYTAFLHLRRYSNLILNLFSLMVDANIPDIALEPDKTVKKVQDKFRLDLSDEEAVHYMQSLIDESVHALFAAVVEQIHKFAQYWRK

COc1ccc(S(=O)(=O)Nc2cccnc2Nc2ccc(O)cc2)cc1 [ABT-751]
IC50 (NSCLC): 1500 nM

CO[C@H]1C[C@@H]2CC[C@@H](C)[C@@](O)(O2)C(=O)C(=O)N2CCCC[C@H]2C(=O)O[C@H]([C@H](C)C[C@@H]2CC[C@@H](OCCO)[C@H](OC)C2)CC(=O)[C@H](C)/C=C(\C)[C@@H](O)[C@@H](OC)C(=O)[C@H](C)C[C@H](C)/C=C/C=C/C=C/1C [EVEROLIMUS]
IC50 [1]: 5 to 6 nM

Oc1ccc(/C=C/c2cc(O)cc(O)c2)cc1 [RESVERATROL]
IC50 [2]: 3300 nM

CCCC(C(=O)OCCN(CC)CC)(c1ccccc1)c1ccccc1 [PROADIFEN HYDROCHLORIDE]
IC50 (CYP450): 19000 nM

COc1ccc(N(C(=O)CCl)C(C(=O)NCCc2ccccc2)c2cccs2)cc1Cl (stereo not given)
IC50 [3]: 25 nM | IC50 [4]: 5800 nM | IC50 [5]: 18 nM

Cc1cc(Nc2cc(Cl)nc(Oc3ccc([N+](=O)[O-])cc3)n2)n[nH]1
IC50 [6]: 19 nM

C=CC(C)(C)c1cc(/C=C/C(=O)c2ccc(O)cc2)c(OC)cc1O [LICOAGROCHACONE A]
IC50 [7]: 970 nM

OCCNCc1ccc(OCc2ccc(F)cc2)c(OCc2ccc(F)cc2)c1
IC50 [8]: 4600 nM
